Test results: patent US20130150598A1, “USE OF 25-HYDROXY-VITAMIN D3 TO AFFECT HUMAN MUSCLE PHYSIOLOGY” (DSM IP ASSETS B.V., priority 2008, published 2013)

Tests used:
[1] = test system: gastrocnemius muscle gene expression (mRNA); assay: Gene chip analysis of gastrocnemius muscle in hindlimb unloaded (tail suspension) skeletal muscle atrophy model; format: in vivo, BalbC mice; details: for Differentially expressed muscle genes compared to HU: selected skeletal muscle genes
Excerpt: Initially this model was established in rats for simulating spaceflight in humans and is commonly used in other scientific fields to study the loss of skeletal muscle mass or bone. The results are considered indicative of human conditions such as sarcopenia (degenerative loss of skeletal muscle mass and strength during the process of ageing) or immobilization of skeletal muscle (e.g. after prolonged bed rest due to fractures, surgery or trauma). Methods For our study, nine month old BalbC female mice were randomized at the beginning of the study into four groups with 10 animals per group • 1. […] The animals were placed in special cages for duration of seven days; all mice were housed separately and had free access to feed and water ad libidum. […] At the end of the study the gastrocnemius muscle was taken out and directly frozen in liquid nitrogen for further analysis. […] Total RNA was isolated using the commonly used Trizol protocol. The RNA was quantified by using spectrophotometric analysis. The integrity of total RNA samples was also assessed qualitatively on an Agilent 2100 Bioanalyzer. RNA was then prepared for the one cycle cDNA synthesis. A poly-A RNA control is used for this step to provide exogenous positive controls to monitor the entire eukaryotic target labelling process. The first cDNA synthesis is done, and after the second strand cDNA synthesis the cDNA is cleaned up of double-stranded cDNA. A biotin labelled cRNA is then synthesised, cleaned up and quantified using a spectrophotometer at 260/280 nm. It is important that cRNA target is fragmented before hybridization onto a GeneChip probe arrays to obtain optimal assay sensitivity. After fragmentation the probes are hybridized on the chips (Affymetrix Mouse 430-2 chips). The chips are washed and stained in the fluidics station of Affymetrix and scanned in the gene chip scanner. The data is then transferred from the scanner for further analysis using software from Genedata (Expressionist 5.0: […] Analyst). Data interpretation and pathway analysis was done with the online version of the GeneGo Metacore package ([…] evaluates microarray data for quality issues and flags problematic measurements. It provides a set of normalization algorithms and validated condensing methods to automatically pre-process and summarize raw microarray data for subsequent statistical analysis.

[2] = test system: healthy, postmenopausal women; assay: Clinical trial: muscle strength (knee extensor and flexor strength); format: in vivo, human; details: 4 months; for Muscle strength, knee extension (best value), change vs. baseline / Muscle strength, knee extension (mean value), change vs. baseline / Muscle strength, knee flexion (best value), change vs. baseline / Muscle strength, knee flexion (mean value), change vs. baseline: daily 20 μg per day / weekly 140 μg per week, oral
Excerpt: (§1) Each group included five subjects. They are followed for four months in Zurich, Switzerland during the winter.
(§2) Equimolar quantities of both substances were investigated. […] As the maximum pre-existing baseline concentration of 25-OH D3 will be 50 nmol/L, it is not anticipated that subjects will approach the range where disturbance in Ca^2+ homeostasis has been observed.
(§3) Each dosage is consumed orally at breakfast. The duration of the study is four months for the “Daily” and “Weekly” groups. Subjects enrolled in the “Bolus” group consume orally a single dosage at the second study visit.
(§4) Muscle strength and function were assessed by the following standard performance tests: knee flexor and extensor strength, repeated sit-to-stand test and timed up & go (TUG) in Week 1 on visit 2 (baseline) and at study end on visit 15. Muscle strength was measured as knee extensor and flexor in Newtons (kiloponds). TUG is a measure of functional mobility including muscle strength, gait speed, and balance and is assessed in seconds. The repeated sit-to-stand is a functional test and measured in seconds.

[3] = test system: healthy, postmenopausal women; assay: Clinical trial: muscle function (repeated sit-to-stand, timed up & go); format: in vivo, human; details: for Muscle function, repeated sit-to-stand, change vs. baseline / Muscle function, timed-up-and-go, change vs. baseline: daily 20 μg per day / weekly 140 μg per week, oral
Excerpt: as §1, §2, §3, §4

[4] = at the safe upper level of 250 μg/day; cited from earlier work
[5] = test system: C57BL/6J mice; assay: Muscle hypertrophy model (gastrocnemius removal) and endurance exercise capacity test; format: in vivo
Excerpt: The objective of this study was to test the effects of 25-OH D3 in a muscle hypertrophy model and in an endurance exercise capacity test in C57BL/6J mice. It is recognized in the art that removal of the gastrocnemius muscle induces compensatory hypertrophy in the soleus and plantaris muscles by multiple mechanisms leading to improved muscle strength and leg power.
Two groups of 10 animals were anesthetized and the left hindlimb of the animals was fixed. All animals received an analgesic. A small incision was made through the skin over the gastrocnemius muscle. The complete gastrocnemius muscle and the tendons were exposed. Both heads of the gastrocnemius muscle were carefully dissected from the underlying intact muscles and care was taken not to rupture nerves and vessels. The skin was closed with a silk suture and the animals were returned into the cages. After recovering from anesthesia the animals could move directly without problems in their cages. Animals were treated for three weeks by gavage with 25-OH D3 at a daily dosage of 50 μg/kg and the control group received vehicle. At the end of the study endurance exercise capacity of all animals was tested on a rodent treadmill.

[6] = GLM least square means, % improvement adjusted for baseline strength, age, BMI
[7] = GLM least square means, % time needed adjusted for baseline function, age, BMI, 4 months

C=C1CC[C@H](O)C/C1=C/C=C1\CCC[C@]2(C)[C@@H]([C@H](C)CCCC(C)C)CC[C@@H]12 [Vitamin D3, cholecalciferol]
Differentially expressed probe sets for genes against HU control group ([1]; 50 μg/kg/bw each, gavage twice, 7 days hindlimb unloading, Affymetrix Mouse 430-2): 385
Number of the group's differentially expressed probe sets also differentially expressed in 25-OH D3+Vitamin D3 group ([1]; Venn overlap, FIG. 2 / FIG. 3): 177
Share of the group's differentially expressed probe sets also differentially expressed in 25-OH D3+Vitamin D3 group ([1]; Venn overlap, FIG. 2 / FIG. 3): ~46%
Expression pattern Myosin, light chain kinase (Mylk) ([1]; gastrocnemius, microarray signal, HU control 749): 786
Expression pattern Tropomyosin 1 (Tpm1) ([1]; gastrocnemius, microarray signal, HU control 1179): 2199
Expression pattern Titin (Tnt) ([1]; gastrocnemius, microarray signal, HU control 11353): 11354
Expression pattern Myomesin 1 (Myom 1) ([1]; gastrocnemius, microarray signal, HU control 84697): 99099
Differentially expressed muscle genes compared to HU [1]: Desmin; myoneurin; tropomyosin 1, alpha; tropomyosin
Muscle strength, knee extension (best value), change vs. baseline [2]: −24.8 Newton
Muscle strength, knee extension (mean value), change vs. baseline [2]: −23.7 Newton
Muscle strength, knee flexion (best value), change vs. baseline [2]: 2.4 Newton
Muscle strength, knee flexion (mean value), change vs. baseline [2]: 3.6 Newton
Muscle function, repeated sit-to-stand, change vs. baseline ([3]; 4 months): 0.30 s
Muscle function, timed-up-and-go, change vs. baseline ([3]; 4 months): -0.46 s

Vitamin D
Blood concentration of 25-hydroxyvitamin D after ingestion as dietary supplement [4]: about 200 nmol/L

C=C1CC[C@H](O)C/C1=C/C=C1\CCC[C@]2(C)[C@@H]([C@H](C)CCCC(C)(C)O)CC[C@@H]12 [25-OH D3, 25-hydroxyvitamin D3]
Share of the group's differentially expressed probe sets also differentially expressed in 25-OH D3+Vitamin D3 group ([1]; Venn overlap, FIG. 2 / FIG. 3): ~61%
Differentially expressed muscle genes compared to HU [1]: Desmin; dystonin; myocyte enhancer factor 2A;
Muscle strength, knee extension (best value), change vs. daily/weekly Vitamin D3 [2, 6]: 17.6%
Muscle strength, knee extension (mean value), change vs. daily/weekly Vitamin D3 [2, 6]: 17.0%
Muscle strength, knee flexion (best value), change vs. daily/weekly Vitamin D3 [2, 6]: 4.7%
Muscle strength, knee flexion (mean value), change vs. daily/weekly Vitamin D3 [2, 6]: 3.1%
Muscle strength, knee extension (best value), change vs. baseline [2]: 13.6 Newton
Muscle strength, knee extension (mean value), change vs. baseline [2]: 13.0 Newton
Muscle strength, knee flexion (best value), change vs. baseline [2]: 7.2 Newton
Muscle strength, knee flexion (mean value), change vs. baseline [2]: 7.9 Newton
Soleus-Plantaris muscle weight/body weight ([5]; 50 μg/kg/day gavage, 3 weeks, control 1.82): 1.94 mg/g
Soleus wet weight ([5]; 50 μg/kg/day gavage, 3 weeks, control 5.25): 6.37 mg
Plantaris wet weight ([5]; 50 μg/kg/day gavage, 3 weeks, control 31.68): 33.24 mg
Muscle cross-sectional area ([5]; computer tomography, 50 μg/kg/day, 3 weeks, control 19.90): 20.98 mm^2
Total leg cross-sectional area ([5]; computer tomography, 50 μg/kg/day, 3 weeks, control 22.78): 24.04 mm^2
Skeletal mass by computer tomography of muscle and total leg area ([5]; in words): increases skeletal mass
Soleus-plantaris muscle weight/body weight ratio compared to control ([5]; in words): increased
Wet weight of the soleus and plantaris muscles compared to control animals ([5]; in words): increased
Endurance exercise capacity compared to control mice ([5]; in words, longer running distance and time): increased endurance exercise capacity
Running time ([5]; rodent treadmill, 50 μg/kg/day, 3 weeks, control 37.6): 41.0 min
Running distance ([5]; rodent treadmill, 50 μg/kg/day, 3 weeks, control 986.0): 1078.4 m
Muscle function, repeated sit-to-stand, change vs. daily/weekly Vitamin D3 [3, 7]: 13.9%
Muscle function, timed-up-and-go, change vs. daily/weekly Vitamin D3 [3, 7]: 8.4%
Muscle function, repeated sit-to-stand, change vs. baseline ([3]; 4 months): 0.63 s
Muscle function, timed-up-and-go, change vs. baseline ([3]; 4 months): 0.27 s
Likelihood of maintaining or improving lower extremity strength and function compared to Vitamin D3 ([3]; unadjusted analysis across four lower extremity tests): 2.8 fold
